Assay results taken from patent publication US8691859B2 (priority 2005, dated 2014).
≈ marks a conversion by molar mass, not a printed value.

Assays:
[1] = test system: B. anthracis GFP sterne vegetative cells; experiment: microbe, parasite or virus in culture; type: cell-based; conditions: Bacillus anthracis, read-out: MIC B. anthracis vegetative cells
[2] = test system: B. anthracis GFP sterne spores; experiment: microbe, parasite or virus in culture; type: cell-based; conditions: Bacillus anthracis, read-out: MIC B. anthracis spores

Row | SMILES | MIC [1] | MIC [2]
1 | Cc1cc(N)c2cc(NC(=O)Nc3ccc4nc(C)cc(N)c4c3)ccc2n1 [NSC 12155, 1,3-bis(4-amino-2-methyl-quinolin-6-yl)urea] | 17.8 µg/mL (≈ 47.8 µM) | 4.45 µg/mL (≈ 11.9 µM)
2 | Cc1cc2nc(C=Cc3nc4cc(C)c(C)cc4[nH]3)[nH]c2cc1C [NSC 92833, 2-[2-(5,6-dimethyl-1H-benzoimidazol-2-yl)ethenyl]-5,6-dimethyl-1H-benzoimidazole] | > 12.6 µg/mL | > 12.6 µg/mL
3 | C(=Cc1nc2ccccc2[nH]1)c1nc2ccccc2[nH]1 [NSC 103699, 2-[2-(1H-benzoimidazol-2-yl)ethenyl]-1H-benzoimidazole] | > 10.4 µg/mL | > 10.4 µg/mL
4 | OCCn1c(C=Cc2nc3ccccc3[nH]2)nc2ccccc21 [NSC 103701, 2-[2-[2-(1H-benzoimidazol-2-yl)ethenyl]benzoimidazol-1-yl]ethanol] | > 12.2 µg/mL | > 12.2 µg/mL
5 | CC(O)C(=O)O.N=C(N)c1ccc(-c2cc3ccc(C(=N)N)cc3s2)cc1 [NSC 240890, 2-(4-carbamimidoylphenyl)benzothiophene-6-carboximidamide; 2-hydroxypropanoic acid] | > 19 µg/mL | > 19 µg/mL
6 | N=C(N)c1ccc(-c2cc3cc(C(=N)N)ccc3s2)cc1 [NSC 240891, 2-(4-carbamimidoylphenyl)benzothiophene-5-carboximidamide] | > 14.7 µg/mL | > 14.7 µg/mL
7 | N=C(N)c1ccc(-c2nc3ccc(C(=N)N)cc3[nH]2)cc1 [NSC 240894, 2-(4-carbamimidoylphenyl)-3H-benzoimidazole-5-carboximidamide] | > 14 µg/mL | > 14 µg/mL
8 | N=C(N)c1ccc(-n2cc3cc(C(=N)N)ccc3n2)cc1 [NSC 240895, 2-(4-carbamimidoylphenyl)indazole-5-carboximidamide] | > 14 µg/mL | > 14 µg/mL
9 | N=C(N)c1ccc(-n2nc3ccc(C(=N)N)cc3n2)cc1 [NSC 240896, 2-(4-carbamimidoylphenyl)benzotriazole-5-carboximidamide] | > 14.1 µg/mL | > 14.1 µg/mL
10 | N=C(N)c1ccc(-c2[nH]c3cc(C(=N)N)ccc3c2-c2ccccc2)cc1 [NSC 240897, 2-(4-carbamimidoylphenyl)-3-phenyl-1H-indole-6-carboximidamide] | 17 µg/mL (≈ 48.2 µM) | 8.52 µg/mL (≈ 24.1 µM)
11 | N=C(N)c1ccc(-c2cc(-c3ccc(C(=N)N)cc3)on2)cc1 [NSC 240900, 4-[3-(4-carbamimidoylphenyl)oxazol-5-yl]benzenecarboximidamide] | > 15.1 µg/mL | > 15.1 µg/mL
12 | N=C(N)c1ccc2oc(/C=C/c3cc4cc(C(=N)N)ccc4s3)cc2c1 [NSC 266472, 2-[(E)-2-(5-carbamimidoylbenzothiophen-2-yl)ethenyl]benzofuran-5-carboximidamide] | 17.3 µg/mL (≈ 48.1 µM) | 8.66 µg/mL (≈ 24 µM)
13 | N=C(N)c1ccc2nc(/C=C/c3nc4ccc(C(=N)N)cc4[nH]3)[nH]c2c1 [NSC 266475, 2-[(E)-2-(5-carbamimidoyl-3H-benzoimidazol-2-yl)ethenyl]-3H-benzoimidazole-5-carboximidamide] | > 16.7 µg/mL | > 16.7 µg/mL
14 | N=C(N)c1ccc2oc(CCc3cc4cc(C(=N)N)ccc4o3)cc2c1 [NSC 266477, 2-[2-(5-carbamimidoylbenzofuran-2-yl)ethyl]benzofuran-5-carboximidamide] | > 16.8 µg/mL | > 16.8 µg/mL
15 | Nc1ccc(C2=Cc3ccc(N)cc3S2(=O)=O)cc1 [NSC 266482, 2-(4-aminophenyl)-1,1-dioxo-benzothiophen-6-amine] | > 10.9 µg/mL | > 10.9 µg/mL
16 | c1cc(-c2cc3ccc(C4=NCCN4)cc3[nH]2)ccc1C1=NCCN1 [NSC 278995, 6-(4,5-dihydro-1H-imidazol-2-yl)-2-[4-(4,5-dihydro-1H-imidazol-2-yl)phenyl]-1H-indole] | > 16.1 µg/mL | > 16.1 µg/mL
17 | c1cc(-c2cc3ccc(C4=NCCN4)cc3s2)ccc1C1=NCCN1 [NSC 278996, 2-[2-[4-(4,5-dihydro-1H-imidazol-2-yl)phenyl]benzothiophen-6-yl]-4,5-dihydro-1H-imidazole] | > 16.8 µg/mL | > 16.8 µg/mL
18 | C(=C\c1cc2cc(C3=NCCN3)ccc2o1)/c1cc2cc(C3=NCCN3)ccc2o1 [NSC 278999, 2-[2-[(E)-2-[5-(4,5-dihydro-1H-imidazol-2-yl)benzofuran-2-yl]ethenyl]benzofuran-5-yl]-4,5-dihydro-1H-imidazole] | > 18.8 µg/mL | > 18.8 µg/mL
19 | O=C(Nc1ccc(C2=NCCN2)cc1)c1cc2cc(C3=NCCN3)ccc2o1 [NSC 290111, 5-(4,5-dihydro-1H-imidazol-2-yl)-N-[4-(4,5-dihydro-1H-imidazol-2-yl)phenyl]benzofuran-2-carboxamide] | > 17.8 µg/mL | 17.8 µg/mL (≈ 47.8 µM)
20 | N=C(N)c1ccc2cc(/C=C/c3cc4ccc(C(=N)N)cc4o3)oc2c1 [NSC 294199, 2-[(E)-2-(6-carbamimidoylbenzofuran-2-yl)ethenyl]benzofuran-6-carboximidamide] | 16.7 µg/mL (≈ 48.4 µM) | 8.34 µg/mL (≈ 24.2 µM)
21 | N=C(N)c1ccc2oc(/C=C/c3cc4ccc(C(=N)N)cc4o3)cc2c1 [NSC 294202, 2-[(E)-2-(5-carbamimidoylbenzofuran-2-yl)ethenyl]benzofuran-6-carboximidamide] | > 16.7 µg/mL | > 16.7 µg/mL
22 | N=C(N)c1ccc(NC(=O)c2cc3ccc(C(=N)N)cc3o2)cc1 [NSC 294207, 6-carbamimidoyl-N-(4-carbamimidoylphenyl)benzofuran-2-carboxamide] | > 15.8 µg/mL | > 15.8 µg/mL
23 | O=C(Nc1ccc(C2=NCCN2)cc1)c1cc2ccc(C3=NCCN3)cc2o1 [NSC 294208, 6-(4,5-dihydro-1H-imidazol-2-yl)-N-[4-(4,5-dihydro-1H-imidazol-2-yl)phenyl]benzofuran-2-carboxamide] | > 17.8 µg/mL | > 17.8 µg/mL
24 | C(=C\c1cc2ccc(C3=NCCN3)cc2o1)/c1cc2ccc(C3=NCCN3)cc2o1 [NSC 294494, 2-[2-[(E)-2-[6-(4,5-dihydro-1H-imidazol-2-yl)benzofuran-2-yl]ethenyl]benzofuran-6-yl]-4,5-dihydro-1H-imidazole] | 18.8 µg/mL (≈ 47.3 µM) | 18.8 µg/mL (≈ 47.3 µM)
25 | N=C(N)c1ccc(-c2[nH]c3cc(C(=N)N)ccc3c2N)cc1 [NSC 300509, 3-amino-2-(4-carbamimidoylphenyl)-1H-indole-6-carboximidamide] | > 14.6 µg/mL | > 14.6 µg/mL
26 | N=C(N)c1ccc(-c2ccc(-c3ccc(C(=N)N)cc3)s2)cc1 [NSC 300510, 4-[5-(4-carbamimidoylphenyl)thiophen-2-yl]benzenecarboximidamide] | > 15.7 µg/mL | 15.7 µg/mL (≈ 49.1 µM)
27 | N=C(N)c1ccc(/C=C/c2cc3cc(C(=N)N)ccc3o2)cc1 [NSC 300512, 2-[(E)-2-(4-carbamimidoylphenyl)ethenyl]benzofuran-5-carboximidamide] | > 15.1 µg/mL | > 15.1 µg/mL
28 | c1cc(-c2cc3cc(C4=NCCN4)ccc3s2)ccc1C1=NCCN1 [NSC 308569, 2-[2-[4-(4,5-dihydro-1H-imidazol-2-yl)phenyl]benzothiophen-5-yl]-4,5-dihydro-1H-imidazole] | > 16.8 µg/mL | > 16.8 µg/mL
29 | C(=C\c1cc2cc(C3=NCCN3)ccc2o1)/c1ccc(C2=NCCN2)cc1 [NSC 308570, 2-[2-[(E)-2-[4-(4,5-dihydro-1H-imidazol-2-yl)phenyl]ethenyl]benzofuran-5-yl]-4,5-dihydro-1H-imidazole] | 17.2 µg/mL (≈ 48.1 µM) | 17.2 µg/mL (≈ 48.1 µM)
